{"source": "patent US20220289903A1", "about": "“POLYMER AND COMPOSITION FROM RENEWABLE SOURCE” (ÅBO AKADEMI UNIVERSITY, priority 2019, published 2022)", "key": {"[1]": {"system": "MDAMB-231 cells", "experiment": "WST-1 cell viability assay, cancer cells", "conditions": "25-150 μg/mL DOX, 24 hours and 72 hours"}, "[2]": {"system": "Murine breast cancer (4T1) cells", "experiment": "In vivo study in tumor-bearing mice", "conditions": "equivalent doxorubicin dose 7.5 mg/kg i.v. on alternate day, 4T1 tumor Balb/c mice", "protocol": "All animal experiments were done with the approval of Institutional Animal Ethical Committee (IAEC), National Institute of Immunology, New Delhi. Murine breast cancer (4T1) cells ([…]) in 200 μL of FBS were injected subcutaneously into the right flanks of 5-week-old female Balb/c mice. Mice were randomized into four groups (6 mice in each group) after they developed a tumor of ˜75 mm^3. […] Tumor measurements were made every alternate day using a digital caliper, and tumor volume was calculated using the formula L×B2/2 where L and B are the length and breadth of the tumor. Each mouse was weighed before dosing and weight loss with respect to dosing. The survival study was continued until the last mouse was found live in all the groups. […] FIG. 9B represents an example of the weight change (%) of Balb/c mice vs injection day when treated as above."}}}
{"smiles": "COc1cccc2c1C(=O)c1c(O)c3c(c(O)c1C2=O)C[C@@](O)(C(=O)CO)C[C@@H]3O[C@H]1C[C@H](N)[C@H](O)[C@H](C)O1.Cl", "note": "[DOX, doxorubicin HCl]", "values": [{"measurement": "percentage proliferation (cytotoxicity)", "setting": "[1]", "value": "equally cytotoxic regardless the cell line used"}, {"measurement": "number of doses after which all animals of the group died", "setting": "[2]", "value": 4, "unit": "doses"}]}
